Drawing on PubChem BioAssay AID588412 (NMMLSC, 2011), this text covers EC50 for 7 molecules.

The structures appear in SMILES notation. Active and inactive are the calls of the source.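 The calls were made as follows: active = fitted EC50 below about 63 µM, meaning a log molar EC50 under -4.2; inactive = the rest.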

The assay deals with Integrin alpha-4 (Homo sapiens) (UniProt P13612). The experiment in a line: displacement of fluorescent LDV from VLA-4 – U937 cells, flow cytometry, set 1, orthogonal assay, dose response (AID 588412). The conditions noted are these: LDV-FITC competition, flow cytometry MCF. A general note: A flow cytometer gives signals particle by particle.
Sequence of Integrin alpha-4 (Homo sapiens) (P13612 whole entry, looked up): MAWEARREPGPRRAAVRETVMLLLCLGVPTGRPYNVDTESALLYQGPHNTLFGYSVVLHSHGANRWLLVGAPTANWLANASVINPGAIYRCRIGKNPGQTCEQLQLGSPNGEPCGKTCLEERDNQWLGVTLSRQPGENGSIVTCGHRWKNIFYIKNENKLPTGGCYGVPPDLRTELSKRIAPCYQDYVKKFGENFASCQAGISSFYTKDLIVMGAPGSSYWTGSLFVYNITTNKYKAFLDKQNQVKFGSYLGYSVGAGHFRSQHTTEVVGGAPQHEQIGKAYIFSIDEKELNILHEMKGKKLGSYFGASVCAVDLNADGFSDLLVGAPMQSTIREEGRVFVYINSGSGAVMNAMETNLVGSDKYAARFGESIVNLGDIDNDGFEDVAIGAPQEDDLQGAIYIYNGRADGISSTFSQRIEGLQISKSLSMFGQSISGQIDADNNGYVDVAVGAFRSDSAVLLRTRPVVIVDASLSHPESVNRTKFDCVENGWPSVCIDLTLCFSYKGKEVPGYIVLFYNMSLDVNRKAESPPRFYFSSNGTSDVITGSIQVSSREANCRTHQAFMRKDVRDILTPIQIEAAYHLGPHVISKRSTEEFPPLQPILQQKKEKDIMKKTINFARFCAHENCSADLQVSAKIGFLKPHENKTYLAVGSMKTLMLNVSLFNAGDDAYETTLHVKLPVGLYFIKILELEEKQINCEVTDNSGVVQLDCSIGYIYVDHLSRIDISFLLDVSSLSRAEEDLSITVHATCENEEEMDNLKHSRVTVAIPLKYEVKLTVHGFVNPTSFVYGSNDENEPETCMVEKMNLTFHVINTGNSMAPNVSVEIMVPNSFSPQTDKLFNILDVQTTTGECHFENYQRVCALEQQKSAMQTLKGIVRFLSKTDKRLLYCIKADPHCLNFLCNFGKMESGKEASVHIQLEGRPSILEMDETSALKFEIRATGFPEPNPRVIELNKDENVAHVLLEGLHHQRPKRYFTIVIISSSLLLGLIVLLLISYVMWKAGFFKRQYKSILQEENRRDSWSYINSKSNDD
On to `c1ccc2c(-c3ccc(OCCN4CCCC4)cc3)c(-c3ccsc3)sc2c1`, for which the EC50 was 21 µM.

Consider `COc1ccc(-c2sc3ccccc3c2-c2ccc(OCCN(C)C)cc2)cc1`, for which the EC50 was 16.3 µM.

On to `CN(C)CCOc1ccc(-c2c(-c3ccccc3)sc3ccccc23)cc1`, for which the concentration giving a half-maximal response (EC50) is 30.2 µM.

With `COc1cccc(-c2sc3ccccc3c2-c2ccc(OCCN3CCCC3)cc2)c1`, the EC50 is 24.6 µM.

Consider `c1ccc2c(-c3ccc(OCCN4CCCCC4)cc3)c(-c3ccsc3)sc2c1`, for which the EC50 entry was “inactive”.

Regarding `c1ccc(-c2sc3ccccc3c2-c2ccc(OCCN3CCCC3)cc2)cc1`, the EC50 is 28.2 µM.

Consider `COc1cccc(-c2sc3ccccc3c2-c2ccc(OCCN(C)C)cc2)c1`, for which the EC50 was 24.5 µM.

Broadly, the EC50 is the concentration needed to bring the measured effect to its halfway point.
